Literature values in PMC5603512, “Discovery, Semisynthesis, Antiparasitic and Cytotoxic Evaluation of 14-Membered Resorcylic Acid Lactones and Their Derivatives” (Scientific Reports, 2017).
Values after ≈ are worked out from the molar mass of the structure shown.

Tested on: P. falciparum lines K1
Settings: cited from earlier work

Row | SMILES | IC50 against P. falciparum line K1 [µg/mL]
1 | COc1cc(O)c2c(c1)[C@H]1O[C@@H]1C[C@H](O)[C@H](O)C(=O)/C=C\C[C@H](C)OC2=O [Hypothemycin] | 2.2 (≈ 5.81 µM)
2 | C[C@H]1C/C=C/[C@@H](O)[C@@H](O)CC/C=C/c2cc(O)cc(O)c2C(=O)O1 [aigialomycin D] | 6.6 (≈ 19.7 µM)
